According to patent publication US10053468B2, “Heterocyclic compound” (TAKEDA PHARMACEUTICAL COMPANY LIMITED, priority 2013, dated 2018):
Where two headings read alike, the source gives them in different places.

Columns and labels:
RORγt [1] = molecular target: T1, RORγt (Homo sapiens, UniProt P51449); experiment: RORγt binding test using fluorescent-labeled cholesterol (TR-FRET); settings: read-out: Binding inhibitory rate of fluorescent-labeled cholesterol to RORγt at test compound 1 μM (%)
T1 sequence (P51449 1-497 isoform P51449-2): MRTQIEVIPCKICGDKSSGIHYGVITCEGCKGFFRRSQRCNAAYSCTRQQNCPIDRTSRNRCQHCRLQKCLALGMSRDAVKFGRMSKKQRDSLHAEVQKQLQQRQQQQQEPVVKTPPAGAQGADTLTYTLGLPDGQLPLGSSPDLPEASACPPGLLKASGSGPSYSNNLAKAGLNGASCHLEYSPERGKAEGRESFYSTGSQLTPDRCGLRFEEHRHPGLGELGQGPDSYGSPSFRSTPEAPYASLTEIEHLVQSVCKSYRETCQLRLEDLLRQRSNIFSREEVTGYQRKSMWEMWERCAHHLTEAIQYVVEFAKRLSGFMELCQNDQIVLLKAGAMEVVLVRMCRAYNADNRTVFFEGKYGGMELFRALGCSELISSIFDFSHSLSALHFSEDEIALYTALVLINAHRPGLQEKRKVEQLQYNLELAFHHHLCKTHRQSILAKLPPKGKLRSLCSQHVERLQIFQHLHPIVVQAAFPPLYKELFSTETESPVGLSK
In short: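 After 20 min at room temperature with His-tagged RORγt and BODIPY-cholesterol in pH 7.5 Tris buffer (NaCl, DTT, BSA), compound wells got terbium anti-His antibody for another 20 min. Time-resolved FRET was read with excitation 320 nm, emission 520 nm and a 100 µs delay.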

RORγt [2] = molecular target: T1, RORγt; experiment: RORγt binding test using fluorescent-labeled synthetic ligand (TR-FRET); settings: read-out: Binding inhibitory rate of fluorescent-labeled synthetic ligand to RORγt at test compound 1 μM (%)
In short: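 His-tagged RORγt (diluted to 240 nM) with compound, then fluorescent synthetic ligand (diluted to 12 μM), 20 min at room temperature, followed by Tb anti-His antibody (diluted to 8 nM), 20 min.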

RORγt [3] = molecular target: T1, RORγt; experiment: Jurkat reporter test (human IL-17 ROR response element luciferase, RORγt vector); assay type: cell-based; settings: read-out: Luminescence level inhibitory rate at test compound 3 μM (%)
In short: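 Luminescence (Bright-Glo, 10 min, RT) was measured after overnight compound treatment of electroporated Jurkat cells (1350 V, 10 ms interval, 3 pulses). The reaction medium was RPMI with 10% lipid-reduced FCS, 10 mM HEPES (pH 7.5) and 5 μM lovastatin.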

RORγt [4] = molecular target: T1, RORγt; experiment: Cofactor recruitment test (Alpha Screen, biotinylated SRC-1 peptide); assay type: biochemical; settings: read-out: Signal value inhibitory rate at test compound 1 μM (%)
Experimental: Cofactor Recruitment Test
Cofactor recruitment test was performed by Alpha Screen (Histidine Detection Kit, PerkinElmer) method. First, a test compound was diluted with an assay buffer (50 mM Tris-HCl (pH 7.5), 50 mM KCl, 1 mM DTT, 0.1% BSA) and added to a 384 well plate by 5 μL. […] The mixture was stood in a dark place for 1 hr, and the signal value was measured by Envision (PerkinElmer).

[5] = test compound 3 μM, Jurkat cells

Compound	inhibition at 3 µM (RORγt [3]; [5])	inhibition at 1 µM (RORγt [1])	inhibition at 1 µM (RORγt [2])	inhibition at 1 µM (RORγt [4])	inhibition at 3 µM (RORγt [3]; Jurkat)
COCc1ccc2c(c1)CCN(C(=O)c1cc(O)no1)[C@H]2C(=O)Nc1ccc([Si](C)(C)C)c(F)c1 [Example 107, (1R)-N-(3-fluoro-4-(trimethylsilyl)phenyl)-2-((3-hydroxy-1,2-oxazol-5-yl)carbonyl)-6-(methoxymethyl)-1,2,3,4-tetrahydroisoquinoline-1-carboxamide]		103%	102%	100%	102%
COCc1ccc2c(c1)CCN(C(=O)CCCC(=O)O)[C@H]2C(=O)Nc1ccc([Si](C)(C)C)c(F)c1 [Example 110, 5-((1R)-1-((3-fluoro-4-(trimethylsilyl)phenyl)carbamoyl)-6-(methoxymethyl)-3,4-dihydroisoquinolin-2 (1H)-yl)-5-oxopentanoic acid]		102%	102%	100%	103%
CC[Si](C)(C)c1c(F)cc(NC(=O)[C@H]2c3ccc(OC)nc3CCN2C(=O)c2cc(O)no2)cc1F [Example 111, (5R)-N-(4-(ethyl (dimethyl)silyl)-3,5-difluorophenyl)-6-((3-hydroxy-1,2-oxazol-5-yl)carbonyl)-2-methoxy-5,6,7,8-tetrahydro-1,6-naphthyridine-5-carboxamide]		103%	101%	99%	103%
CC[Si](C)(C)c1c(F)cc(NC(=O)[C@H]2c3ccc(OC)nc3CCN2C(=O)CCCC(=O)O)cc1F [Example 114, 5-((5R)-5-((4-(ethyl(dimethyl)silyl)-3,5-difluorophenyl)carbamoyl)-2-methoxy-7,8-dihydro-1,6-naphthyridin-6(5H)-yl)-5-oxopentanoic acid]		103%	102%	98%	101%

Continued, in another order:

inhibition at 3 µM (RORγt [3]; [5])	Compound	inhibition at 1 µM (RORγt [1])	inhibition at 1 µM (RORγt [2])	inhibition at 1 µM (RORγt [4])	inhibition at 3 µM (RORγt [3]; Jurkat)
102%	COc1ccc2c(c1)CCN(C(=O)CC(F)(F)F)[C@H]2C(=O)Nc1cc(F)c(C(C)(C)C(=O)N2CCCC2)c(F)c1 [Example 104, (1R)-N-(3,5-difluoro-4-(2-methyl-1-oxo-1-(pyrrolidin-1-yl)propan-2-yl)phenyl)-6-methoxy-2-(3,3,3-trifluoropropanoyl)-1,2,3,4-tetrahydroisoquinoline-1-carboxamide]	102%	101%	101%	
101%	COc1ccc2c(c1)CCN(C(=O)Cc1cccnc1)[C@H]2C(=O)Nc1cc(F)c(C(C)(C)C(=O)N2CCCC2)c(F)c1 [Example 105, (1R)-N-(3,5-difluoro-4-(2-methyl-1-oxo-1-(pyrrolidin-1-yl)propan-2-yl)phenyl)-6-methoxy-2-(pyridin-3-ylacetyl)-1,2,3,4-tetrahydroisoquinoline-1-carboxamide]	103%	101%	100%	
102%	COc1ccc2c(c1)CCN(C(=O)Cc1nnc(C)o1)[C@H]2C(=O)Nc1cc(F)c(C(C)(C)C(=O)N2CCCC2)c(F)c1 [Example 106, (1R)-N-(3,5-difluoro-4-(2-methyl-1-oxo-1-(pyrrolidin-1-yl)propan-2-yl)phenyl)-6-methoxy-2-((5-methyl-1,3,4-oxadiazol-2-yl)acetyl)-1,2,3,4-tetrahydroisoquinoline-1-carboxamide]	102%	101%	101%	
102%	COc1ccc2c(n1)CCN(C(=O)c1cc(O)no1)[C@H]2C(=O)Nc1cc(F)c2c(c1)CCC2(C)C [Example 115, (5R)-N-(7-fluoro-1,1-dimethyl-2,3-dihydro-1H-inden-5-yl)-6-((3-hydroxy-1,2-oxazol-5-yl)carbonyl)-2-methoxy-5,6,7,8-tetrahydro-1,6-naphthyridine-5-carboxamide]	103%	101%	89%	
